# Laboratory results reported in patent US20230046078A1, “METHODS OF USING SUBSTITUTED FLAVONES FOR TREATING BONE DISORDERS” (EMORY UNIVERSITY, priority 2021, published 2023).
# “Also recorded” adds a separate entry of the source.
# Tests used:
# MC3T3-E1 cells [1] = type: cell-based, Murine
# MC3T3-E1 cells [2] = assay: ELISA of OPG and RANK-L secreted into the medium of MC3T3 cells; type: cell-based, Murine
# Text: FIG. 9, Panel A contains representative images of ALP staining in […] cells treated with BDNF or 7,8-DHF combined with or without K252a for 14 days (n=3 independent experiments) (Scale bar, 5 mm (upper panel), 200 μm (lower panel)). […] FIG. 9, Panel C contains Western blots for MC3T3 cells cultured in complete medium or osteogenic induction medium (OIM) with BDNF or 7,8 DHF combined with or without K252a for 4 days. […] FIG. 9, Panel D contains graphs of the relative protein levels of C/EBPP, p-C/EBPβ, AEP, RANK-L, OPG, Osterix, p-TrkB/TrkB and p-Akt/AKT in MC3T3 cells cultured in the complete medium or OIM with BDNF or 7,8-DHF combined with or without K252a for four days. Data are shown as mean±SEM of three independent experiments, one-way ANOVA. Data are shown in each graph from left to right as 1) Control, 2) OIM+DMSO, 3) OIM+BDNF, 4) OIM+7,8-DHF, 5) OIM+BDNF+K252a, and 6) OIM+7,8-DHF+K252a. FIG. 9, Panel E contains graphs of an AEP enzymatic activity assay. BDNF and 7,8-DHF inhibit AEP activities, and K252a abolish BDNF and 7,8-DHF's effects. Data are shown as mean±SEM of 3 independent experiments, one-way ANOVA. Data are shown in each graph from left to right as 1) Control, 2) OIM+DMSO, 3) OIM+BDNF, 4) OIM+7,8-DHF, 5) OIM+BDNF+K252a, and 6) OIM+7,8-DHF+K252a. FIG. 9, Panel F contains graphs of qPCR results showing that OPG mRNA expression increases in MC3T3 cells after 7,8-DHF treatment for four days. Data are shown as mean±SEM of three independent experiments, one-way ANOVA. Data are shown in each graph from left to right as 1) Control, 2) OIM+DMSO, 3) OIM+BDNF, 4) OIM+7,8-DHF, 5) OIM+BDNF+K252a, and 6) OIM+7,8-DHF+K252a. FIG. 9, Panel G contains graphs showing that 7,8-DHF increases OPG and decreases the RANK-L/OPG ratio. Levels of OPG and RANK-L proteins secreted into the medium were measured by ELISA. Data are shown as mean±SEM of 3 independent experiments, one-way ANOVA. Data are shown in each graph from left to right as 1) Control, 2) OIM+DMSO, 3) OIM+BDNF, 4) OIM+7,8-DHF, 5) OIM+BDNF+K252a, and 6) OIM+7,8-DHF+K252a.
# AEP = AEP activity assay on MC3T3-E1 cell lysates; type: cell-based, Murine
# Procedure: Cell lysates (10 μg) were incubated in 200 μl assay buffer (20 mM citric acid, 60 mM Na2HPO4, 1 mM EDTA, 0.1% CHAPS, and 1 mM DTT, pH 6.0) containing 20 μM δ-secretase substrate Z-Ala-Ala-Asn-AMC (Bachem, Bubendorf, Switzerland). AMC released by substrate cleavage was quantified by measuring at 460 nm in a fluorescence plate reader at 37° C. for 2 h in kinetic mode.
# MC3T3-E1 cells [3] = type: cell-based, Murine; remark: listed apart in the source
# Procedure: Total RNA was isolated by TRIzol (Life Technologies, Carlsbad, Calif.). Reverse transcription was performed with SuperScript III reverse transcriptase (Life Technologies). Gene-specific primers and probes were designed and bought from Taqman (Life Technologies). All real-time PCR reactions were performed using the ABI 7500-Fast Real-Time PCR System and the Taqman Universal Master Mix Kit (Life Technologies). The relative quantification of gene expression was calculated using the ΔΔCt method. Predesigned real-time PCR primers from Applied Biosystems (Waltham, Mass.) were used for the analysis of Opg (Tnfrsf11b; Mm0043545_m1), RANK-L (Tnfsf11; Mm00441908_m1), AEP (Lgmn; Mm01325350_m1), GAPDH (Gapdh; Mm99999915_g1).
# [4] = system: ovariectomized (OVX) WT mice; assay: H&E, TRAP staining and histomorphometry of distal femur in OVX WT mice, R13 versus anti-RANK-L antibody; type: in vivo; details: WT mice after OVX
# Procedure: (§1) Female C57BL6/J wild-type mice and BDNF+/−mice were obtained from Jackson Laboratory (MMRRC stock #000664 and 002267), then held and bred. The AEP knockout mice were generated on a mixed C57BL/6 and 129/Ola background. All in vivo experiments were carried out in female mice. All mice were kept under specific pathogen-free conditions in an environmentally controlled clean room and housed at 22° C. on a 12-h/12-h light/dark cycle. Food and water were provided ad lib. WT, BDNF+/−mice, AEP WT and AEP knockout mice were bilaterally ovariectomized or sham operated at 12 weeks of age. One week after ovariectomy, the WT and BDNF+/−mice received vehicle or R13 dissolved in 5% DMSO/0.5% methylcellulose at dose of 21.8 mg/kg/d, six days per week, for 8 weeks by gavage. In another group, 4 weeks after ovariectomy, WT mice were treated with IgG or anti-RANK-L monoclonal antibody (10 mg/kg, twice per week) by single subcutaneous injection for 4 weeks.
# (§2) The measurements, indices and units for histomorphometric analysis were recommended by the Nomenclature Committee of the American Society of Bone and Mineral Research. Mice were injected with calcein (25 μg/g) subcutaneously at day 10 and day 3 before sacrifice. Bone histomorphometric analysis was performed at the University of Alabama at Birmingham Center for Metabolic Bone Disease-Histomorphometry and Molecular Analysis Core Laboratory. The Goldner's trichrome-stained plastic-embedded sections of calcein-double labeled femora of the mice were analyzed by an operator blinded as to the nature of the samples.
# Representative data of double labeling of the trabecular bone in WT mice with OVX after R13 or anti-RANK-L antibody treatment are provided in FIG. 14, Panel C.
# WT mice = details: mouse, in vivo
# [5] = system: ovariectomized (OVX) WT mice; assay: Serum markers in OVX WT mice, R13 versus anti-RANK-L antibody; type: in vivo
# Procedure: as §1
# Serum Osteocalcin (Novus Biologicals, Littleton, Colo., Cat. NBP2-68151), CTX (Immunodiagnostic systems, East Boldon, UK, Cat. AC-06F1), RANK-L and OPG (Abcam, Cat. ab269553 and ab203365) were measured by specific Elisa assays.
# Given that R13 protects the bone by increase OPG, the RANK-L antibody was used as a comparator drug. Four weeks after ovariectomy, WT mice were treated with IgG or anti-RANK-L monoclonal antibody consecutively for 4 weeks.
# [6] = system: ovariectomized (OVX) WT and BDNF+/− mice; assay: H&E, TRAP staining and quantitative bone histomorphometry of distal femur in OVX WT and BDNF+/− mice treated with R13; type: in vivo
# Procedure: as §1, §2
# To further explore the roles of BDNF signaling in bone resorption and formation after OVX, hematoxylin and eosin (H&E) staining was conducted to analyze bone morphology and white edipocytes in both WT and BDNF+/−mice after OVX surgery. […] These observations were also validated by the single and double-labeled surface and inter-label thickness analysis (FIG. 7). […] Treatments with R13 inhibited N.Oc/BS in both WT and BDNF+/−mice after OVX.
# [7] = system: ovariectomized (OVX) WT and BDNF+/− mice; type: in vivo
# [8] = system: ovariectomized (OVX) WT and BDNF+/− mice; type: in vivo; remark: listed apart in the source
# [9] = among the groups regardless of the treatment
# [10] = OVX WT and BDNF+/− mice upon R13 treatment
# [11] = OVX mice, R13 21.8 mg/kg orally, eight weeks, vs vehicle control
# [12] = […], R13 21.8 mg/kg orally, eight weeks, compared to OVX group
molecule,measurement,setting,value
COC(=O)[C@@]1(O)C[C@H]2O[C@]1(C)n1c3ccccc3c3c4c(c5c6ccccc6n2c5c31)C(=O)NC4 [K252a],"effects triggered by BDNF or 7,8-DHF (Western blot) under K252a",MC3T3-E1 cells [1]; K252a 100 nM pretreatment,potently blunted
same,"RANK-L/OPG ratio in BDNF and 7,8-DHF groups under K252a",MC3T3-E1 cells [2]; K252a 100 nM pretreatment,highly augmented
same,"BDNF and 7,8-DHF's effects on AEP activities under K252a",AEP; K252a 100 nM pretreatment,abolish
same,"BDNF/7,8-DHF-elevated RANK-L mRNAs under K252a",MC3T3-E1 cells [3]; K252a 100 nM pretreatment,not affected
same,"BDNF/7,8-DHF-promoted OPG mRNA levels under K252a",MC3T3-E1 cells [3]; K252a 100 nM pretreatment,abolished
"CNC(=O)Oc1ccc2c(=O)cc(-c3ccccc3)oc2c1OC(=O)NC [R13, 4-oxo-2-phenyl-4H-chromene-7,8-diyl bis(methylcarbamate)]",OVX-induced osteoclast cells (TRAP staining),[4],diminished
same,trabecular bone marrow density (H&E staining),[4],increased
same,white adipocyte contents in the bone (H&E staining),[4],decreased
same,BFR/BS,[4]; distal femur trabecular bone,significantly increased
same,N.Oc/BS,[4]; distal femur trabecular bone,decreased
same,BV/TV,WT mice,elevated
same,Conn.D.,WT mice,no significant difference
same,Ct.Ar,WT mice,no significant difference
same,Ct.Th,WT mice,no significant difference
same,SMI,WT mice,no significant difference
same,Tb.N,WT mice,no significant difference
same,Tb.Sp,WT mice,no significant difference
same,Tb.Th,WT mice,no significant difference
same,serum BDNF,WT mice,no significant difference
same,serum CTX,WT mice,no significant difference
same,serum OPG level,WT mice,significantly increased
same,serum RANK-L,WT mice,without affecting; also recorded: no significant difference
same,serum RANK-L/OPG ratio,WT mice,no significant difference
same,serum osteocalcin,WT mice,no significant difference
same,serum OPG,[5],robustly elevated
same,serum RANK-L,[5],without altering
same,serum RANK-L/OPG ratio,[5],significant reduction
same,OVX-induced bone loss,[6]; R13 treatment,attenuated; also recorded: greatly blocks
same,OVX-induced osteoclast cells (TRAP staining),[6]; WT and BDNF+/− mice,diminished
same,N.Oc/BS,[6]; WT and BDNF+/− mice after OVX,inhibited
same,adipocyte content in the bone (H&E staining),"[6]; after OVX, WT and BDNF+/− mice",decreased
same,trabecular bone tissue (H&E staining),"[6]; after OVX, WT and BDNF+/− mice",increased
same,bone formation rate (BFR),"[6]; after OVX, vehicle vs R13",vehicle-treated mice exhibited lower MAR and BFR as compared to R13-treated mice
same,mineral apposition rate (MAR),"[6]; after OVX, vehicle vs R13",vehicle-treated mice exhibited lower MAR and BFR as compared to R13-treated mice
same,MS/BS ratio,[6]; [9],remained comparable
same,percentage of surfaces covered by OCs (Oc.S/BS),[6]; [9],remained comparable
same,N.Ob/BS,[6]; vehicle and R13-treated mice,no significant differences
same,ObS/BS,[6]; vehicle and R13-treated mice,no significant differences
same,RANK-L/OPG ratio (serum),[7]; [10],significant reduction
same,serum OPG,[7]; [10],substantially increased
same,serum CTX levels,[7]; R13-treated OVX mice compared to sham group,higher
same,serum osteocalcin,[7]; R13-treated OVX mice compared with vehicle-treated sham group,increased
same,serum BDNF levels,[7]; among the groups,remained equivalent
same,trabecular spacing (Tb.Sp),"[8]; OVX mice, both types, R13 21.8 mg/kg orally, eight weeks, vs OVX group",decreased
same,trabecular number (Tb.N),[8]; [11],higher
same,trabecular thickness (Tb.Th),[8]; [11],higher
same,connectivity density (Conn.D),[8]; [12],higher
same,structure model index (SMI),[8]; [12],lower
same,trabecular bone volume fraction (BV/TV),"[8]; […], R13 21.8 mg/kg orally, six days per week for eight weeks, compared to OVX group",higher
same,bone density,"[8]; after OVX, overall conclusion",strongly increase
same,relative cortical bone area to tissue area (Ct.Ar/Tt.Ar),"[8]; among the groups, R13 21.8 mg/kg orally",remained unchanged
same,average cortical thickness (Ct.Th),"[8]; mouse, in vivo, po, 21.8 mg/kg",escalated
same,cortical bone cortical area (Ct.Ar),"[8]; mouse, in vivo, po, 21.8 mg/kg",escalated
"BDNF: Brain-derived neurotrophic factor, a neurotrophin; TrkB ligand",AEP expression,"MC3T3-E1 cells [1]; OIM, 4 days",diminished
same,OPG protein (Western blot),"MC3T3-E1 cells [1]; OIM, 4 days",augmentation
same,RANK-L protein (Western blot),"MC3T3-E1 cells [1]; OIM, 4 days",augmentation
same,OPG protein secreted into the medium,"MC3T3-E1 cells [2]; OIM, vs OIM alone",further augmented
same,RANK-L protein secreted into the medium,"MC3T3-E1 cells [2]; OIM, vs OIM alone",further augmented
same,RANK-L/OPG ratio (ELISA),"MC3T3-E1 cells [2]; OIM, vs OIM alone","OIM alone were significantly higher than BDNF and 7,8-DHF"
same,AEP protease activities,"AEP; MC3T3 cells in OIM, substrate Z-Ala-Ala-Asn-AMC",greatly blocked; also recorded: inhibit
same,OPG mRNA levels,"MC3T3-E1 cells [3]; OIM, four days",strong stimulatory effect
same,RANK-L mRNA,"MC3T3-E1 cells [3]; OIM, four days",elevated
